According to patent publication US12286400B2, “Isofagomine salts, methods of use and formulations” (TAKEDA PHARMACEUTICAL COMPANY LIMITED, priority 2019, dated 2025):

Assays:
[1] = Dynamic vapor sorption (DVS); type: physicochemical; conditions: for gain in weight when increasing the RH from 0 to 80%: RH 0 to 80%; for additional weight gain upon storage at 95% RH: holding at 95% RH; for mass gain until 95% RH: scanning up to 95% RH
Source text: The behavior of the IFG quinate salt, sample SP245-QNC-P2, was investigated in the presence of variable water vapor pressure using DVS measurement. The result from the DVS test is presented in FIG. 6 and FIG. 6B as the DVS isotherm of sample SP245-QNC-P2: the change of relative sample weight (red curve) and relative humidity (blue curve) as a function of time.
The SP245-QNC-P2 salt prepared in example 1 is hygroscopic at high relative humidity; i.e., above about 80% RH.
The effect of changes in relative humidity on the IFG fumarate sample SP245-FUM-P4 was studied using DVS.
The IFG fumarate salt is hygroscopic at relative humidities above about 80%.
The effect of changes in relative humidity on the IFG oxalate salt sample SP245-OXA-P1 was studied using DVS.
The oxalate salt is hygroscopic above 80% RH.
The effect of changes in relative humidity on the crystalline IFG tartrate salt sample SP245-DTA-P3 was studied using DVS.

[2] = TG-FTIR thermogram; type: physicochemical
Procedure: The obtained crystalline form SP245-QNC-P2 is anhydrous/non-solvated. […] Decomposition is observable above 200° C.
The fumarate salt is a solvent and water-free form. Decomposition is observable above 150° C.

[3] = Storage stress-tests at 80° C. in closed vials (CAD-HPLC, 1H-NMR, XRPD); type: physicochemical
Procedure: In order to obtain insight regarding thermal stability of the four crystalline IFG salts, storage stress-tests at 80° C. over several days were conducted. A sample of the free base (SP245-FB-P4), a fumarate sample (SP245-FUM-P5), a D-tartrate sample (SP245-DTA-P7), an L-tartrate sample (SP245-LTA-P5) and an oxalate sample SP245-OXA-P2 were stored at 80° C. for one, three and seven days in closed vials. Samples were tested by CAD and ^1H-NMR.
CAD-HPLC was performed in order to identify the possible adducts or thermal degradation product that could be generated upon storage under the given conditions. All samples were examined by CAD-HPLC; however, no considerable changes were observed between the starting materials and the stored samples. […] In addition, XRPD was carried out for the seven-day stored crystalline salt samples and the XRPD patterns before and after storage were essentially identical.
NMR spectroscopy was conducted on the seven-day stored samples.

[4] = system: mutant GCase; conditions: in vitro, fibroblasts from Gaucher patients; cited from earlier work

relative humidity above which the salt is hygroscopic ([1]; DVS)	gain in weight when increasing the RH from 0 to 80% ([1]; DVS)	weight change when decreasing the relative humidity from 50 to 0% ([1]; DVS, RH 50 to 0%)	additional weight gain upon storage at 95% RH ([1]; DVS) [%]	mass gain until 95% RH ([1]; DVS) [%]	XRPD of sample recovered after DVS measurement [1]	Decomposition observable above [2]	weight loss when decreasing the relative humidity from 50 to 0% RH ([1]; DVS, RH 50 to 0%) [weight %]	gain in weight at 95% RH compared to the first cycle ([1]; DVS, second cycle) [%]	CAD-HPLC Area % ([3]; 80° C., closed vial, 1 day) [%]	CAD-HPLC Area % ([3]; 80° C., closed vial, 3 days) [%]	CAD-HPLC Area % ([3]; 80° C., closed vial, 7 days) [%]	CAD-HPLC Area % ([3]; starting material) [%]	gain in weight when increasing the RH from 0 to 75% ([1]; DVS, RH 0 to 75%)	Molecule	relative humidity up to which the salt is not hygroscopic ([1]; DVS) [%]	mass change upon increasing the relative humidity from 0% to 70% ([1]; DVS, RH 0% to 70%)	effect on activity of mutant GCase [4]	NMR after storage compared to the non-stressed sample ([3]; 80° C., seven days)
about 80 % RH	no gain in weight	No significant loss in weight	70	20	no form change was observed	above 200 °C	–	–	–	–	–	–	–	isofagomine quinate [SP245-QNC-P2]	–	–	–	–
–	–	–	–	–	–	–	–	–	80.2	80.6	80.4	81.1	–	OC[C@H]1CNC[C@@H](O)[C@@H]1O [SP245-FB-P4, (3R,4R,5R)-3,4-dihydroxy-5-hydroxymethylpiperidine, reference compound]	–	–	increase the activity of mutant GCase	several additional NMR signals were observed after storage
80 % RH	–	No significant loss in weight	90	30	corresponds to the starting material	–	–	–	83.6	82.9	83.6	85.9	no gain in weight	isofagomine oxalate [SP245-OXA-P1]	–	–	–	–
–	–	–	–	–	–	–	–	–	83.9	84.1	85.3	84.3	–	O=C(O)C(O)C(O)C(=O)O.OC[C@H]1CNC[C@@H](O)[C@@H]1O [SP245-LTA-P5, IFG L-(+)-tartrate]	–	–	–	–

Molecule	relative humidity above which the salt is hygroscopic ([1]; DVS)	gain in weight when increasing the RH from 0 to 80% ([1]; DVS)	weight change when decreasing the relative humidity from 50 to 0% ([1]; DVS, RH 50 to 0%)	additional weight gain upon storage at 95% RH ([1]; DVS) [%]	mass gain until 95% RH ([1]; DVS) [%]	XRPD of sample recovered after DVS measurement [1]	Decomposition observable above [2]	weight loss when decreasing the relative humidity from 50 to 0% RH ([1]; DVS, RH 50 to 0%) [weight %]	gain in weight at 95% RH compared to the first cycle ([1]; DVS, second cycle) [%]	CAD-HPLC Area % ([3]; 80° C., closed vial, 1 day) [%]	CAD-HPLC Area % ([3]; 80° C., closed vial, 3 days) [%]	CAD-HPLC Area % ([3]; 80° C., closed vial, 7 days) [%]	CAD-HPLC Area % ([3]; starting material) [%]	gain in weight when increasing the RH from 0 to 75% ([1]; DVS, RH 0 to 75%)	relative humidity up to which the salt is not hygroscopic ([1]; DVS) [%]	mass change upon increasing the relative humidity from 0% to 70% ([1]; DVS, RH 0% to 70%)	effect on activity of mutant GCase [4]	NMR after storage compared to the non-stressed sample ([3]; 80° C., seven days)
isofagomine fumarate [SP245-FUM-P4]	about 80 % RH	no considerable gain in sample mass	–	47	11	correspond to the sample SP245-FUM-P4 used as starting material	above 150 °C	< 1	5	86.9	87.1	87.8	87.9	–	–	–	–	–
isofagomine D-(−)-tartrate [SP245-DTA-P3]	–	–	–	70	32	–	–	–	–	85	85.1	85.6	86.3	–	70	No mass change	–	–
